What all share (test): NCI-60 cell line screen, 48 h
In assay [1] the test system is 786-0.
The subject of assay [2] is BT-549.
Assay [3] has as its system CAKI-1.
The subject of assay [4] is HOP-92.
The test system of assay [5] is MCF7.
The test system of assay [6] is Malme-3M.
Assay [7] has as its system NCI-H23.
Assay [8] relates to NCI-H522.
Assay [9] concerns NCI/ADR-RES.
In assay [10] the test system is RPMI-8226.
Assay [11] deals with RXF 393.
Assay [12] deals with SF-539.
For assay [13], the system named is SK-MEL-28.
Assay [14] deals with SK-MEL-5.
For assay [15], the system named is SK-OV-3.
For assay [16], the system named is SN12C.
The subject of assay [17] is SR.
For assay [18], the system named is UO-31.
Assay [19] deals with HCC 2998.

The values below come from ChEMBL document CHEMBL1201862, “PubChem BioAssay data set” (2004).

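A five-concentration, 48-hour dose response in 96-well plates underlies each endpoint, interpolated linearly between surrounding concentrations. GI50 marks 50% less growth.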 Calls of active or inactive are those of the source. Rule as the data show it: active = GI50 up to about 1.1 µM and inactive = higher.

On to `S=C1N=C(Cl)/C(=C\c2ccco2)N1`, for which the GI50 in assay [1], in assay [2], in assay [3], in assay [4], in assay [5] and in [6] was > 100 µM (inactive) throughout. In addition, the GI50 is > 100 µM (inactive) in [7]; 33.7 µM (inactive) in [8]; > 100 µM (inactive) in [9]; > 100 µM (inactive) in assay [10]; > 100 µM (inactive) in [11]; > 100 µM (inactive) in assay [12]. The GI50 in assay [13] is > 100 µM (inactive); in [14], > 100 µM (inactive); in assay [15], > 100 µM (inactive); in assay [16], > 100 µM (inactive); in [17], > 79.6 µM (inactive); in [18] it was > 100 µM (inactive).
As to `COC(=O)C1C=CN(N(C)C)C2=C1C(=O)c1c(O)cccc1C2=O` (centres undefined), the GI50 in assay [1] was 2.62 µM (inactive); in [2], 1.99 µM (inactive); in assay [3], 2.47 µM (inactive); in [19] it was 1.93 µM (inactive); in [5] it was 1.95 µM (inactive); in assay [6] it was 1.53 µM (inactive). Besides, the GI50 in assay [7] is 1.63 µM (inactive); in [8] it was 2.48 µM (inactive); in [9], 2.22 µM (inactive); in [10], 0.887 µM (active); in assay [11], 2.79 µM (inactive); in assay [13], 1.94 µM (inactive). Also, the GI50 in assay [14] is 0.54 µM (active); in assay [15], 6.19 µM (inactive); in assay [16], 1.73 µM (inactive); in [17], 0.152 µM (active); in assay [18] it was 3.82 µM (inactive).
In the case of `O=c1[nH]c(=O)n(C2CC(O)C(CO)O2)cc1OCCc1ccccc1` (centres undefined), the GI50 in assay [1], in assay [2], in [3], in assay [5], in [6] and in [7] was > 100 µM (inactive) in each case. Also, the GI50 in [8], in assay [9], in [10], in assay [11], in assay [13] and in assay [14] was > 100 µM (inactive) each time. In addition, the GI50 in assay [15], in assay [16], in assay [17] and in assay [18] was > 100 µM (inactive) in each case.
On to `CCN=C=NCCCN(C)C`, for which the GI50 in assay [1], in assay [2], in [3], in assay [4], in assay [5] and in assay [6] was > 100 µM (inactive) in each case. Further, the GI50 in assay [7], in [8], in assay [9], in assay [10], in assay [11] and in assay [12] was > 100 µM (inactive) in each case. For the same compound, the GI50 in assay [13], in assay [14], in assay [15], in [16], in [17] and in [18] was > 100 µM (inactive) in each case.
Take `CSc1c(C#N)c(S)[nH]c(=O)c1C#N`: the GI50 in assay [1] is 71.8 µM (inactive); in [2], 40.5 µM (inactive); in assay [3], > 100 µM (inactive); in [19], 36.2 µM (inactive); in assay [5] it was 37.9 µM (inactive); in assay [6], 7.14 µM (inactive). In addition, the GI50 was 23.7 µM (inactive) in [7]; 8.34 µM (inactive) in assay [8]; 43.2 µM (inactive) in assay [9]; 3.89 µM (inactive) in assay [10]; 26.1 µM (inactive) in assay [11]; > 100 µM (inactive) in [12]. Further, the GI50 is 46.1 µM (inactive) in assay [13]; 9.91 µM (inactive) in assay [14]; > 100 µM (inactive) in [15]; 85.5 µM (inactive) in [16]; 51.2 µM (inactive) in [17]; 18.7 µM (inactive) in [18].
`O=C(Nc1nnc(-c2ccccc2)o1)C(SC(=S)N1CCOCC1)c1ccccc1` (centres undefined): the GI50 was 17.9 µM (inactive) in assay [1]; 22.5 µM (inactive) in assay [2]; 30.2 µM (inactive) in [3]; 27.1 µM (inactive) in assay [5]; 55.6 µM (inactive) in assay [6]; 18.9 µM (inactive) in assay [7]. Moreover, the GI50 was 23.2 µM (inactive) in assay [8]; 14.6 µM (inactive) in assay [9]; 22.6 µM (inactive) in assay [10]; 41.9 µM (inactive) in assay [11]; 33.3 µM (inactive) in assay [12]; 46.9 µM (inactive) in [13]. The GI50 in assay [14] was 15.7 µM (inactive); in assay [15], 42.9 µM (inactive); in assay [16], 12.6 µM (inactive); in assay [17], 9.75 µM (inactive); in assay [18] it was 13.6 µM (inactive).
For `O=C(Oc1ccccc1)N1c2ccccc2[C@@]23O[C@]24CCC[C@H]3C#C/C=C\C#C[C@H]14`, the GI50 is 10.5 µM (inactive) in assay [1]; 12.9 µM (inactive) in [2]; 13 µM (inactive) in assay [3]; 12.3 µM (inactive) in assay [4]; 6.5 µM (inactive) in assay [5]; 10.4 µM (inactive) in [6]. Also, the GI50 in assay [7] was 11.1 µM (inactive); in [9], 14.4 µM (inactive); in assay [10], 2.82 µM (inactive); in assay [11] it was 10.1 µM (inactive); in assay [12] it was 20.4 µM (inactive); in [13], 14 µM (inactive). In addition, the GI50 is 0.173 µM (active) in assay [15], 13.7 µM (inactive) in assay [16], 10.4 µM (inactive) in assay [17] and 13.7 µM (inactive) in assay [18].
With `COc1ccc(N[S+]([O-])c2ccc(Cl)cc2)cc1` (centres undefined), the GI50 was 49.8 µM (inactive) in assay [1]; 0.248 µM (active) in assay [2]; 30.7 µM (inactive) in assay [19]; 32.6 µM (inactive) in assay [5]; 24.3 µM (inactive) in assay [6]; 50.5 µM (inactive) in [7]. In addition, the GI50 in assay [8] was 16.2 µM (inactive); in assay [9], 38.8 µM (inactive); in [10], 39.4 µM (inactive); in assay [12], 11.9 µM (inactive); in [13], > 100 µM (inactive); in [14], 28.4 µM (inactive). Besides, the GI50 in assay [16] is > 100 µM (inactive); in assay [17] it was 13.4 µM (inactive); in assay [18] it was 14.6 µM (inactive).
For the compound `Cc1c(/N=N/c2ccccc2)c(-c2ccccc2)n(C2OC(CO)C(O)C(O)C2O)c(=S)c1C#N` (centres undefined), the GI50 in [1] is 5.14 µM (inactive); in assay [2] it was 5.4 µM (inactive); in [19], 5.3 µM (inactive); in [5], 4.74 µM (inactive); in assay [6], 6.67 µM (inactive); in assay [7], 3.36 µM (inactive). Moreover, the GI50 was 3.5 µM (inactive) in [8]; 17.3 µM (inactive) in assay [9]; 4.06 µM (inactive) in assay [10]; 2.5 µM (inactive) in assay [11]; 5.13 µM (inactive) in assay [12]; 4.03 µM (inactive) in [13]. Moreover, the GI50 was 2.33 µM (inactive) in assay [14]; 11.1 µM (inactive) in assay [15]; 6.22 µM (inactive) in assay [16]; > 100 µM (inactive) in assay [17]; 7.74 µM (inactive) in assay [18].
Turning to `CC(=O)n1[nH]c(=O)n(-c2ccccc2)c1=O`, the GI50 in assay [1], in [2], in assay [3], in assay [19], in assay [5] and in assay [6] was > 100 µM (inactive) each time. The GI50 in assay [7], in [8], in assay [9], in [10], in [11] and in [13] was > 100 µM (inactive) in each case. Also, the GI50 in assay [14], in assay [15], in [16], in assay [17] and in assay [18] was > 100 µM (inactive) in each case.
For `COc1ccc(/N=N/c2c(C)c(C#N)c(=S)n(C3OC(CO)C(O)C(O)C3O)c2-c2ccccc2)cc1` (centres undefined), the GI50 in assay [1] is 32 µM (inactive); in assay [2], 38 µM (inactive); in assay [3] it was 24.2 µM (inactive); in [19] it was 88.5 µM (inactive); in [5], 38.3 µM (inactive); in assay [6], 30.6 µM (inactive). Moreover, the GI50 in assay [7] was 28.4 µM (inactive); in assay [9], 93.1 µM (inactive); in assay [10], 36.1 µM (inactive); in assay [11], 28 µM (inactive); in [12], 42.7 µM (inactive); in assay [13], 25.3 µM (inactive). Besides, the GI50 is 11.5 µM (inactive) in assay [14]; 27.2 µM (inactive) in assay [15]; 32.3 µM (inactive) in assay [16]; 32.1 µM (inactive) in assay [17]; 39.4 µM (inactive) in assay [18].
Regarding `CN(C)c1ccc(C(C#N)N2CCCN(C(C#N)c3ccc(N(C)C)cc3)C2c2ccc(N(C)C)cc2)cc1` (centres undefined), the GI50 in [1], in assay [2], in assay [3], in assay [4], in assay [5] and in [6] was > 100 µM (inactive) in each case. Moreover, the GI50 in [7], in [8], in assay [9], in assay [10], in assay [11] and in [12] was > 100 µM (inactive) in each case. The GI50 in assay [13], in [14], in assay [15], in [16], in assay [17] and in assay [18] was > 100 µM (inactive) in each case.
